The assay has as its target TBK1 (Homo sapiens (Human), UniProt Q9UHD2). Description: TBK1 low ATP kinase assay (in vitro assay 1). In kind it is biochemical.
Where [1] appears, read: in vitro assay 1, read-out: TBK1 low ATP kinase assay IC50.

For 18 compounds, IC50 results are on record in US10894784B2, “Heteroarylbenzimidazole compounds” (BAYER PHARMA AKTIENGESELLSCHAFT, priority 2015, dated 2021).

Where two headings read alike, the source gives them in different places.

Chain of TBK1 (Q9UHD2 whole entry): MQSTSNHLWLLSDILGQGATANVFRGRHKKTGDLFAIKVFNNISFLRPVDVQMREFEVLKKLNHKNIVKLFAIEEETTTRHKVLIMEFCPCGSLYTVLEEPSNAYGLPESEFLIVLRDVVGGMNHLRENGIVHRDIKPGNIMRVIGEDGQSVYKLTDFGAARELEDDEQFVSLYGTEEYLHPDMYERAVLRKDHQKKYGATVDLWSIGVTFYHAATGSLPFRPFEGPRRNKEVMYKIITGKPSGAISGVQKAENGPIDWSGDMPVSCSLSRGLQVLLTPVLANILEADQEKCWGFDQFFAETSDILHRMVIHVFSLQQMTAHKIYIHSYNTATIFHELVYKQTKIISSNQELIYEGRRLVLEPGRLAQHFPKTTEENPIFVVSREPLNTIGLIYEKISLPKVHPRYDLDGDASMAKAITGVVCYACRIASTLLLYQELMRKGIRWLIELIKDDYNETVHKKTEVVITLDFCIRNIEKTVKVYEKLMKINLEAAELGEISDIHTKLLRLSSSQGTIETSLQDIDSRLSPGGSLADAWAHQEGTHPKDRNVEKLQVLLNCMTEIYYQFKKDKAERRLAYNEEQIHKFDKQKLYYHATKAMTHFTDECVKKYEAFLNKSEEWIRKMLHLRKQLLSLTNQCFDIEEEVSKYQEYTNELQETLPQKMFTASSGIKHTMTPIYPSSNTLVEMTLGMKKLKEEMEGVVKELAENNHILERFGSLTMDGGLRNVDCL

Take `CCS(=O)(=O)N1CCN(Cc2ccnc(Nc3nc4ccc(-c5ncncc5OC)cc4[nH]3)c2)CC1` [Example 35.01.08, N-(4-{[4-(ethylsulfonyl)piperazin-1-yl]methyl}pyridin-2-yl)-6-(5-methoxypyrimidin-4-yl)-1H-benzimidazol-2-amine]: under setting [1], the IC50 – broadly, the midpoint of a concentration-inhibition curve – was 24.3 nM.
`CCc1cc(-c2ccc3nc(Nc4cc(CN5CCN(C(=O)CC(F)(F)F)CC5)ccn4)[nH]c3c2)ncn1` [Example 91.02, 1-{4-[(2-{[6-(6-ethylpyrimidin-4-yl)-1H-benzimidazol-2-yl]amino}pyridin-4-yl)methyl]piperazin-1-yl}-3,3,3-trifluoropropan-1-one]: the IC50 under setting [1] was 12 nM.
With `COc1cncnc1-c1ccc2nc(Nc3cc(C(C)N4CCN(C(=O)C5CCC5)CC4)ccn3)[nH]c2c1` (single isomer, unassigned) [Example 35.03.04.B, cyclobutyl{4-[(1R or 1S)-1-(2-{[6-(5-methoxypyrimidin-4-yl)-1H-benzimidazol-2-yl]amino}pyridin-4-yl)ethyl]piperazin-1-yl}methanone], the IC50 under setting [1] is 34.5 nM.
In the case of `Cc1cnn(C)c1-c1ccc2nc(Nc3cc(C(C)N4CCN(C(=O)CC(F)(F)F)CC4)ccn3)[nH]c2c1` (single isomer, unassigned) [Example 73.01, 1-{4-[(1R or 1S)-1-(2-{[6-(1,4-dimethyl-1H-pyrazol-5-yl)-1H-benzimidazol-2-yl]amino}pyridin-4-yl)ethyl]piperazin-1-yl}-3,3,3-trifluoropropan-1-one], the IC50 under setting [1] amounted to 67 nM.
Same read-out and setting: the value for `COc1ncccc1-c1ccc2nc(Nc3cc(CN4CCN(C(=O)CC5CC5)CC4)ccn3)[nH]c2c1` [Example 15.02, 2-cyclopropyl-1-{4-[(2-{[6-(2-methoxypyridin-3-yl)-1H-benzimidazol-2-yl]amino}pyridin-4-yl)methyl]piperazin-1-yl}ethanone] was 401 nM; that for `CC(c1ccnc(Nc2nc3ccc(-c4cc(C(F)(F)F)ncn4)cc3[nH]2)c1)N1CCN(C(=O)CC(F)(F)F)CC1` (single isomer, unassigned) [Example 29.02.01.A, 3,3,3-trifluoro-1-(4-{(1R or 1S)-1-[2-({6-[6-(trifluoromethyl)pyrimidin-4-yl]-1H-benzimidazol-2-yl}amino)pyridin-4-yl]ethyl}piperazin-1-yl)propan-1-one] was 92.3 nM.
For the compound `Cc1noc(-c2ccc3nc(Nc4cc(C(C)N5CCN(C(=O)CC(F)(F)F)CC5)ccn4)[nH]c3c2)n1` (single isomer, unassigned) [Example 16.06.02.B, 3,3,3-trifluoro-1-{4-[(1S or 1R)-1-(2-{[6-(3-methyl-1,2,4-oxadiazol-5-yl)-1H-benzimidazol-2-yl]amino}pyridin-4-yl)ethyl]piperazin-1-yl}propan-1-one], half-maximal inhibition (TBK1 low ATP kinase assay IC50, in vitro assay 1) (IC50) was put at 17.2 nM.
Turning to `O=C(C1CC1)N1CCN(Cc2ccnc(Nc3nc4ccc(-c5cnn(CC6CC6)c5)cc4[nH]3)c2)CC1` [Example 39.01.03, cyclopropyl(4-{[2-({6-[1-(cyclopropylmethyl)-1H-pyrazol-4-yl]-1H-benzimidazol-2-yl}amino)pyridin-4-yl]methyl}piperazin-1-yl)methanone], under setting [1], the IC50 came to 5.35 nM.
With `CC(c1ccnc(Nc2nc3ccc(-c4ccncn4)cc3[nH]2)c1)N1CCN(C(=O)CC(F)(F)F)CC1` (single isomer, unassigned) [Example 23.05.02.B, 3,3,3-trifluoro-1-{4-[(1S or 1R)-1-(2-{[6-(pyrimidin-4-yl)-1H-benzimidazol-2-yl]amino}pyridin-4-yl)ethyl]piperazin-1-yl}propan-1-one], under setting [1], the IC50 amounted to 1.86 nM.
With `O=C(CC(F)(F)F)N1CCN(Cc2ccnc(Nc3nc4ccc(-c5ncccn5)cc4[nH]3)c2)CC1` [Example 180.02, 3,3,3-trifluoro-1-{4-[(2-{[6-(pyrimidin-2-yl)-1H-benzimidazol-2-yl]amino}pyridin-4-yl)methyl]piperazin-1-yl}propan-1-one], the IC50 under setting [1] stood at 556 nM.
Regarding `O=C(CC(F)(F)F)N1CCN(Cc2ccnc(Nc3nc4ccc(-c5ncnc6c5COC6)cc4[nH]3)c2)CC1` [Example 182.02, 1-{4-[(2-{[6-(5,7-dihydrofuro[3,4-d]pyrimidin-4-yl)-1H-benzimidazol-2-yl]amino}pyridin-4-yl)methyl]piperazin-1-yl}-3,3,3-trifluoropropan-1-one], the IC50 under setting [1] amounted to 110 nM.
`COc1cc(-c2ccc3nc(Nc4cc(CN5CCN(C(=O)OC(C)(C)C)CC5)ccn4)[nH]c3c2)ncn1` [Example 34.01.01, tert-butyl 4-[(2-{[6-(6-methoxypyrimidin-4-yl)-1H-benzimidazol-2-yl]amino}pyridin-4-yl)methyl]piperazine-1-carboxylate]: the IC50 under setting [1] came to 50.6 nM.
For the compound `COCCCNc1cc(-c2ccc3nc(Nc4cc(CN5CCN(C(=O)OC(C)(C)C)CC5)ccn4)[nH]c3c2)ncn1` [Example 90.01, tert-butyl 4-({2-[(6-{6-[(3-methoxypropyl)amino]pyrimidin-4-yl}-1H-benzimidazol-2-yl)amino]pyridin-4-yl}methyl)piperazine-1-carboxylate], the IC50 under setting [1] stood at 5.7 nM.
On to `CC(c1ccnc(Nc2nc3ccc(-c4cnn(CC5CC5(F)F)c4)cc3[nH]2)c1)N1CCN(C(=O)C2CC2)CC1` (single isomer, unassigned) [Example 55.03.02, cyclopropyl{4-[(1R or 1S)-1-(2-{[6-(1-{[(1R or 1S)-2,2-difluorocyclopropyl]methyl}-1H-pyrazol-4-yl)-1H-benzimidazol-2-yl]amino}pyridin-4-yl)ethyl]piperazin-1-yl}methanone], for which, under setting [1], the IC50 was found to be 0.66 nM.
On to `CN(C)c1ncnc(-c2ccc3nc(Nc4cc(CN5CCN(C(=O)CC(F)(F)F)CC5)ccn4)[nH]c3c2)c1Cl` [Example 179.02, 1-(4-{[2-({6-[5-chloro-6-(dimethylamino)pyrimidin-4-yl]-1H-benzimidazol-2-yl}amino)pyridin-4-yl]methyl}piperazin-1-yl)-3,3,3-trifluoropropan-1-one], for which the IC50 under setting [1] was determined as 1140 nM.
Regarding `CCN(CC)C(=O)N1CCN(Cc2ccnc(Nc3nc4ccc(-c5ncncc5OC)cc4[nH]3)c2)CC1` [Example 35.01.04, N,N-diethyl-4-[(2-{[6-(5-methoxypyrimidin-4-yl)-1H-benzimidazol-2-yl]amino}pyridin-4-yl)methyl]piperazine-1-carboxamide], the IC50 under setting [1] stood at 26.9 nM.
Consider `Cn1cc(-c2ccc3nc(Nc4cc(CN5CCN(C(=O)C6CC6)CC5)ccn4)[nH]c3c2)cn1` [Example 37.03, cyclopropyl{4-[(2-{[6-(1-methyl-1H-pyrazol-4-yl)-1H-benzimidazol-2-yl]amino}pyridin-4-yl)methyl]piperazin-1-yl}methanone], for which the IC50 under setting [1] came out at 52.7 nM.
Take `Cc1cc(-c2ccc3nc(Nc4cc(C(C)N5CCN(C(=O)OC(C)(C)C)CC5)ccn4)[nH]c3c2)n(C)n1` (single isomer, unassigned) [Example 89.01, tert-butyl 4-[(1R or 1S)-1-(2-{[6-(1,3-dimethyl-1H-pyrazol-5-yl)-1H-benzimidazol-2-yl]amino}pyridin-4-yl)ethyl]piperazine-1-carboxylate]: the IC50 under setting [1] turned out to be 610 nM.
